Drawing on ChEMBL document CHEMBL2074370, “Are MDCK cells transfected with the human MDR1 gene a good model of the human intestinal mucosa?” (Pharm Res, 2002), this text covers Ki and Km for four compounds.

In series [1] the target is ATP-dependent translocase ABCB1 (Homo sapiens, UniProt P08183). The series can be described thus: TP_TRANSPORTER: inhibition of Digoxin transepithelial transport (basal to apical) in MDR1-expressing MDCK cells. It counts as functional, cell-based.
Series [2] relates to CC[C@]1(O)C[C@@H]2CN(CCc3c([nH]c4ccccc34)[C@@](C(=O)OC)(c3cc4c(cc3OC)N(C)[C@H]3[C@@](O)(C(=O)OC)[C@H](OC(C)=O)[C@]5(CC)C=CCN6CC[C@]43[C@@H]65)C2)C1. Put plainly: TP_TRANSPORTER: transepithelial transport (basal to apical) in MDR1-expressing MDCK cells. It counts as functional, cell-based.

Chain of ATP-dependent translocase ABCB1 (P08183 whole entry): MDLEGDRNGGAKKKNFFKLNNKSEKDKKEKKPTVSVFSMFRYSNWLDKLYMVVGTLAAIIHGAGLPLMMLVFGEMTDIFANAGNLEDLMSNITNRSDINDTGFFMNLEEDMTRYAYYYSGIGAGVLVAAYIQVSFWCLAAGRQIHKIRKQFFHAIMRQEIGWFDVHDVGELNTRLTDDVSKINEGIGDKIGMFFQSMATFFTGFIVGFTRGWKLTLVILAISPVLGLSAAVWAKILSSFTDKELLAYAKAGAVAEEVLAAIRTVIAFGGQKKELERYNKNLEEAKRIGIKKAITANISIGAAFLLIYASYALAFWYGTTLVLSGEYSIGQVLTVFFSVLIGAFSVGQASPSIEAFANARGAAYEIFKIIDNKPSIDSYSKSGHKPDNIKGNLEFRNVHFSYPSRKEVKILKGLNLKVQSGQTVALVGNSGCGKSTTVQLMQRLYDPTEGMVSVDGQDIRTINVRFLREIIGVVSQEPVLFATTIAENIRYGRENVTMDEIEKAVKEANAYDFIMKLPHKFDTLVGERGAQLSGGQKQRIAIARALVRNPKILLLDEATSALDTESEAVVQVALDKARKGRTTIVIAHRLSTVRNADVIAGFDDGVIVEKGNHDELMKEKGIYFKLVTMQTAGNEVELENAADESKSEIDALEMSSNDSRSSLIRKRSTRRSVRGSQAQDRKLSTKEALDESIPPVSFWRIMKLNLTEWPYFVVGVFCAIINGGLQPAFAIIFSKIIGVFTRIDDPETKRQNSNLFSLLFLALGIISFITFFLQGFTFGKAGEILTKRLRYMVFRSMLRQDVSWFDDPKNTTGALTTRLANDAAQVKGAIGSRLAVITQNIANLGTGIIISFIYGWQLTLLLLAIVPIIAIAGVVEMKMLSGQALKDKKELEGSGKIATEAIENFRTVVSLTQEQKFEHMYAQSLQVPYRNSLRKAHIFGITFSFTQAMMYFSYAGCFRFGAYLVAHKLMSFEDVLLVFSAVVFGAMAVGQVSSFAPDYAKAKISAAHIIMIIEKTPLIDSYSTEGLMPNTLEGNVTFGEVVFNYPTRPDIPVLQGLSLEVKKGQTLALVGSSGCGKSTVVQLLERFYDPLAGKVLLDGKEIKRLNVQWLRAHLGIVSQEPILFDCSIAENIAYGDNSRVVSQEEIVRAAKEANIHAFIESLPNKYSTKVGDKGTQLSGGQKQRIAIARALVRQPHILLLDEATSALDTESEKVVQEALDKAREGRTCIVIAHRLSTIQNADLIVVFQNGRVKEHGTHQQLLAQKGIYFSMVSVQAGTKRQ

As a reminder, the Ki is the dissociation constant of the complex between target and ligand, obtained from inhibition or displacement. Take `COc1cccc2c1C(=O)c1c(O)c3c(c(O)c1C2=O)C[C@@](O)(C(C)=O)C[C@@H]3O[C@H]1C[C@H](N)[C@H](O)[C@H](C)O1` [DAUNORUBICIN]: in series [1], the affinity, expressed as Ki, was 111 µM. In the case of `COC(=O)[C@H]1[C@H]2C[C@@H]3c4[nH]c5cc(OC)ccc5c4CCN3C[C@H]2C[C@@H](OC(=O)c2cc(OC)c(OC)c(OC)c2)[C@@H]1OC` [RESERPINE], in series [1], the Ki stood at 11.5 µM. As usually defined, the Km is the substrate concentration at which the rate is half of its maximum. Regarding “ATP-dependent translocase ABCB1 (Homo sapiens)”, the Michaelis constant (Km) in series [2] came to 253 µM.

Consider `CC[C@]1(O)C[C@H]2CN(CCc3c([nH]c4ccccc34)[C@@](C(=O)OC)(c3cc4c(cc3OC)N(C=O)[C@H]3[C@@](O)(C(=O)OC)[C@H](OC(C)=O)[C@]5(CC)C=CCN6CC[C@]43[C@@H]65)C2)C1` [VINCRISTINE], for which the inhibition constant Ki in series [1] was found to be 213 µM.
